Test results taken from patent publication US9462807B2, “Difenoconazole sterepospmeric composition with reduced phytotoxicity” (Syngenta Participations AG, priority 2013, dated 2016).

Test system: Wheat (variety "Riband")
Experiment: Phytotoxicity on pot-grown wheat after track-sprayer application
Format: in vivo
Settings: versus 2S,4R (Ia), 2R,4R (Ic) and 2S,4S (Id)
Protocol: Wheat seeds (variety “Riband”) were sown in 6.5 cm diameter pots with typically 6 seeds per pot. The growing media comprised 66.5% TKS1 peat soil, 30% sugar beet soil and 3.5% sand. The seeds were covered with a fine layer of soil and the pots were watered. Within a day of sowing the pots were treated with 5 mL of a solution of the growth regulator trinexapac-ethyl (Moddus 250 EC™ from Syngenta) diluted 1 part in 1000 parts water. The pots were kept in a controlled environment room at 19° C. constant temperature, 60% relative humidity and a 14 hour day length until test treatment at which time the plants were around 3 weeks old. Plant density was reduced to typically 4 plants per pot prior to application of the test treatments.
The difenoconazole formulations were mixed with water and ultrasonically agitated in order to achieve a homogeneous emulsion. Spray solutions were then made with 9 parts water to 1 part isopropanol by volume. The test treatments were applied using a track-sprayer with a single flat-fan nozzle at a height of 60 cm and calibrated to apply the equivalent of 200 litres per hectare.
The symptoms of phytotoxicity on wheat caused by difenoconazole included chlorosis and/or necrosis.
Test wheat plants were grown and the formulations applied as for Example 3. […]

SMILES: C[C@H]1CO[C@](Cn2cncn2)(c2ccc(Oc3ccc(Cl)cc3)cc2Cl)O1 [Ib]
- Phytotoxic damage to wheat compared with the other stereoisomers: less phytotoxic damage
